Results: patent publication US8093251B2, “Nitrogen-containing heterocyclic compounds and thrombopoietin receptor activators” (Nissan Chemical Industries, Ltd., priority 2006, dated 2012)

Target: T1, human thrombopoietin receptor (c-mpl) (Homo sapiens, UniProt P40238)
T1 construct: expressed in transfected cells
T1 sequence (P40238 26-635): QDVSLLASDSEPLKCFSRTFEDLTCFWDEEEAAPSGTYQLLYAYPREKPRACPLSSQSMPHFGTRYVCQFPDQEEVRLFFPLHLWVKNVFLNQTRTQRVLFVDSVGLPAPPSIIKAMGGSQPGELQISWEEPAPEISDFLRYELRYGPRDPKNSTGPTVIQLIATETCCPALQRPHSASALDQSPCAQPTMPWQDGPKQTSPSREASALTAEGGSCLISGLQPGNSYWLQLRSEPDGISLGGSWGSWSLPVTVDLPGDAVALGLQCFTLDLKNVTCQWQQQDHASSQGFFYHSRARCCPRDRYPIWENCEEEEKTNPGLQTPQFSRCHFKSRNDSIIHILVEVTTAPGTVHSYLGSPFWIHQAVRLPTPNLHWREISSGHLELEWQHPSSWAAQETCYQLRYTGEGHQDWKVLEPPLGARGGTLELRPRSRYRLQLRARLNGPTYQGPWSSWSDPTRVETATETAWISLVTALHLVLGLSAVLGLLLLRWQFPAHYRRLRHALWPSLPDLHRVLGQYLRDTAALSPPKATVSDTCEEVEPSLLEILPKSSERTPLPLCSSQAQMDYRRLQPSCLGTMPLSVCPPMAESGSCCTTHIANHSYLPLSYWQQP
Assay: Stimulation of proliferation of thrombopoietin-dependent cell line UT7/EPO-mpl (WST-8)
Assay type: cell-based
Conditions: human leukemic cell line UT-7/EPO-mpl, 4 days incubation, WST-8, absorbance at 450 nm; read-out: EC50 (concentration that yields a growth rate corresponding to 50% of the growth observed in the presence of 10 ng/mL TPO) (converted)
Protocol: The responses of thrombopoietin receptor to the compounds of the present invention prepared in the Synthetic Examples were assayed using a human leukemic cell line, UT7/EPO-mpl.
UT7/EPO-mpl is a stable transformed cell line obtained by introducing into human leukemic cell line UT7/EPO a vector that induces expression of human thrombopoietin receptor (c-mpl) under control of cytomegalovirus immediate-early promoter by the method of Takatoku et al. (J. Biol. Chem., 272:7259-7263 (1997)). […] These two cell lines were subcultured in IMDM (GIBCO) containing 10% fetal bovine serum (Thermo Electron or BioWest) using a CO2 incubator (5% CO2, 37° C.).
The subcultured cells described above were washed twice with PBS and suspended in IMDM containing 10% fetal bovine serum at a cell density of 6×10^4 cells/ml. The cell suspension was transferred to a 96-well tissue culture plate (CORNING) in 100-μl aliquots. Then either thrombopoietin (Pepro Tech EC) or the compounds of the Synthetic Examples dissolved in dimethyl sulfoxide were diluted 83-fold with IMDM containing 10% fetal bovine serum and added to the aforementioned cell suspension in 20-μl aliquots. The cell suspension was incubated in a CO2 incubator (5% CO2, 37° C.) for 4 days. […] The formazan pigment generated was detected by measuring the absorbance at 450 nm with a 96-well microplate reader (Nihon Molecular Devices, Spectramax 190). […]

EC50: 0.0719 µM
SMILES: CCOC(=O)CN1CCN(C(=S)NNC(C)=C2C(=O)N(c3ccc(C(C)(C)C)cc3)N=C2C)CC1 [Example 7]
